Data on eight compounds can be found in patent publication US9809623B2, “α4β7 peptide monomer and dimer antagonists” (Protagonist Therapeutics, Inc., priority 2014, dated 2017).

Numbered stars: 1 amine (or outer) side, 2 acyl side, 3 side chain; on linkers, the order of the positions; unused ones are H or OH. Bridge positions count the residues as written; N and C are the ends. Square brackets hold non-standard residues; d marks the D form. Peptide text beside a SMILES is read from it. I, II: the chains in the order shown. Phe(4-tBu) = CC(C)(C)c1ccc(C[C@H](N)C(=O)O)cc1; Diglycolyl = O=C(COCC(=O)[*:2])[*:1]; NMeR = CN[C@@H](CCCNC(=N)N)C(=O)O; β3hE = N[C@@H](CCC(=O)O)CC(=O)O; Pen = CC(C)(S)[C@H](N)C(=O)O A value given as a limit tells only on which side of the number the result lay.

As a reminder, the IC50 is the concentration that gives 50% inhibition. Usually half-life stands for the time needed for the level to fall by half in the phase considered.

Data set [1] addresses α4β1 (Homo sapiens, UniProt P05556+P13612). In words: α4β1-VCAM Cell Adhesion Assay (Jurkat E6.1 human cells). The following applies: Table 3-B, Selectivity (α4β1); range classes; read-out: α4β1 cell IC50. Also on record: host or cells: Jurkat E6.1 human T cells. It counts as cell-based. Here is the method: Jurkat E6.1 human cells (Sigma #88042803) were cultured in RPMI 1640 HEPES medium (Invitrogen #22400-089) supplemented with 10% serum (Fetal Bovine Serum, Invitrogen #16140-071), 1 mM sodium pyruvate (Invitrogen #11360-070), 2 mM L-glutamine (Invitrogen #25030-081) and Penicillin-Streptomycin (Invitrogen #15140-122) at 100 units of penicillin and 100 μg of streptomycin per ml. The cells were washed two times in DMEM medium (ATCC #30-2002) supplemented with 0.1% BSA, 10 mM HEPES pH 7 and 1 mM MnCl2. The cells were re-suspended in supplemented DMEM medium at a density of 4×10^6 cells/ml.
A Nunc MaxiSorp plate was coated with rh VCAM-1/CD106 Fc chimera (R&D #862-VC) at 400 ng per well in 50 ul per well in 1×PBS and incubated at 4° C. overnight. The solution was then removed by shaking, blocked with 250 ul per well PBS containing 1% BSA, and incubated at 37° C. for 1 hr. The solution was removed by shaking. Peptides were diluted by serial dilution in a final volume of 50 ul per well (2× concentration). To each well, 50 ul of cells (200,000 cells) were added and the plate was incubated at 37° C., 5% CO2 for 30-45 min to allow cell adhesion. The wells were washed manually three times (100 ul per wash) with supplemented DMEM. After the final wash, 100 ul/well of supplemented DMEM and 10 ul/well of MTT reagent (ATTC cat#30-1010K) were added. The plate was incubated at 37° C., 5% CO2 for 2-3 hrs until a purple precipitate was visible. 100 ul of Detergent Reagent (ATTC cat#30-1010K) was added to each well. The plate was covered from the light, wrapped in Parafilm to prevent evaporation, and left overnight at room temperature in the dark. The plate was shaken for 5 min and the absorbance at 570 nm was measured. To calculate the dose response, the absorbance value of control wells not containing cells was subtracted from each test well.

Data set [2] concerns the target T1, α4β7 (Mus musculus, UniProt P26011+Q00651).
T1 construct: host or cells: TK1 mouse T cells
The experiment in a line: α4β7 Cell Adhesion Assay (Mouse), TK1 cells. Type of data set: cell-based. The following applies: Table 3-B, Potency (α4β7); range classes; read-out: α4β7 cell(MU) IC50. In short, it runs like this:
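Mouse TK1 cells in DMEM with 0.1% BSA, 10 mM HEPES pH 7 and 1 mM MnCl2 were allowed to adhere for 30-45 min at 37 °C to plates coated with recombinant human MAdCAM-1 Fc (200 ng/well) in the presence of serially diluted peptides. Adherent cells were quantified by MTT absorbance at 570 nm, with no-cell background subtracted for dose response.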

Data set [3] can be described thus: Simulated Gastric Fluid (SGF) Assay. Particulars: pig, simulated gastric fluid (SGF) with porcine pepsin, pH 2; Table 4-C, t1/2. It counts as in vitro ADME. The method, then:
SGF was prepared by adding 20 mg NaCl, 32 mg porcine pepsin (MP Biochemicals, catalog 02102599), and 70 μl HCl to 10 ml water (final pH=2). Aliquots of SGF (0.5 ml each) were pre-warmed at 37° C. For each peptide tested, to start the reaction, 1 μl of peptide stock solution (10 mM in DMSO) was added to 0.5 ml SGF and thoroughly mixed such that the final peptide concentration was 20 μM. The reactions were incubated at 37° C. with gentle shaking. At each time point (0, 15, 30, 60 min), 50 μl aliquots were removed and added to 200 ul acetonitrile containing 0.1% formic acid to quench the reaction. Samples were stored at 4° C. until the end of the experiment and centrifuged at 10,000 rpm for 5 minutes. Aliquots of the supernatant were removed, diluted 1:1 into distilled water containing internal standard, and analyzed by LCMS/MS. Percent remaining at each timepoint was calculated based on the peak area response ratio of test compound to internal standard. Time 0 was set to 100%, and all later timepoints were calculated relative to time 0. Half-lives were calculated by fitting to a first-order exponential decay equation using GraphPad.

T1 sequence (Q00651 34-1039 limits assumed): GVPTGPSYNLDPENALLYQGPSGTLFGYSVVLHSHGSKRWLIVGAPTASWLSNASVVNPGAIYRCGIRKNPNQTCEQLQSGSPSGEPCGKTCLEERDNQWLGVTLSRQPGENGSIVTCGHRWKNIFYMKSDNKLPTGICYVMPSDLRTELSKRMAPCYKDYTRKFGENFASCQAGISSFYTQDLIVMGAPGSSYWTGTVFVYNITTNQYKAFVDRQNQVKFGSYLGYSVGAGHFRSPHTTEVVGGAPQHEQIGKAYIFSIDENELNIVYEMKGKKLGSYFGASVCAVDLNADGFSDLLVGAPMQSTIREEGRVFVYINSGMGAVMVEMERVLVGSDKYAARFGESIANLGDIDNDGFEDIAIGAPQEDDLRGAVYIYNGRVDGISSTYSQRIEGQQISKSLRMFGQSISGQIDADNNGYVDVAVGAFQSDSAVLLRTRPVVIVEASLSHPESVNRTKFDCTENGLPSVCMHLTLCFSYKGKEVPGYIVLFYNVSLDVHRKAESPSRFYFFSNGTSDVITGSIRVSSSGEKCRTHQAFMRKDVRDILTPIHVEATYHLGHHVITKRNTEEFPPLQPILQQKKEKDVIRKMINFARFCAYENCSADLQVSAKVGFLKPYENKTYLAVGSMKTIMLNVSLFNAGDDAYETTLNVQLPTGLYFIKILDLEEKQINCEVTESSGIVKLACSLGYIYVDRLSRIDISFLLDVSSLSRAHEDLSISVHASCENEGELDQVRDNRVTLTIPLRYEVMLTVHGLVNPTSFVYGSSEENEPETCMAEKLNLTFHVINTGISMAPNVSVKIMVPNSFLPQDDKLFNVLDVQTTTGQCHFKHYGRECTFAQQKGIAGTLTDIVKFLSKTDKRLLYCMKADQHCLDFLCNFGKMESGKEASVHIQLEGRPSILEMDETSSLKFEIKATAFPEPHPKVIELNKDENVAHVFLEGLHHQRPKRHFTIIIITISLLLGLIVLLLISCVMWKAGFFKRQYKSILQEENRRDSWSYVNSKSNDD
T1 sequence (P26011 20-806): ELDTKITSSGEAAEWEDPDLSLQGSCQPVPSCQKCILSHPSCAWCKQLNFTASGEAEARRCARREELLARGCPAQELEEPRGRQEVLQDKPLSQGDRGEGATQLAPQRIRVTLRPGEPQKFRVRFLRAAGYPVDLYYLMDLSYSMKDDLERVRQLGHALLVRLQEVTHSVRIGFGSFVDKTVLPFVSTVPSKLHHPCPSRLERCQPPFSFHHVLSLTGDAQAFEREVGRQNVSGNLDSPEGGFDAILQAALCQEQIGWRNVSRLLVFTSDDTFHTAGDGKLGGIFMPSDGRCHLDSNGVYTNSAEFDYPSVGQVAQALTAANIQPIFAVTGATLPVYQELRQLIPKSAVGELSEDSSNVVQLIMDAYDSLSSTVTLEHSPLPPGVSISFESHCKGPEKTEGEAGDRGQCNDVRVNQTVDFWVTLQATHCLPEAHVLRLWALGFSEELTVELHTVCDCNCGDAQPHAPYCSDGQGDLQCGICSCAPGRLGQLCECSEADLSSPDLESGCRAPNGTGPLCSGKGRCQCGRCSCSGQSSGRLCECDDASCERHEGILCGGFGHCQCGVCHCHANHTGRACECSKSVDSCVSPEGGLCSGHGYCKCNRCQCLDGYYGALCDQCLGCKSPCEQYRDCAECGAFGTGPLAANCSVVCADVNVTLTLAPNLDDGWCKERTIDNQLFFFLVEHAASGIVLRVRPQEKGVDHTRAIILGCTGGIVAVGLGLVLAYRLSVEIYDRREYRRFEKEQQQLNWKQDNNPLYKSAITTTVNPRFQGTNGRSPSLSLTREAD
Sequence of α4β1 (P13612 34-1032): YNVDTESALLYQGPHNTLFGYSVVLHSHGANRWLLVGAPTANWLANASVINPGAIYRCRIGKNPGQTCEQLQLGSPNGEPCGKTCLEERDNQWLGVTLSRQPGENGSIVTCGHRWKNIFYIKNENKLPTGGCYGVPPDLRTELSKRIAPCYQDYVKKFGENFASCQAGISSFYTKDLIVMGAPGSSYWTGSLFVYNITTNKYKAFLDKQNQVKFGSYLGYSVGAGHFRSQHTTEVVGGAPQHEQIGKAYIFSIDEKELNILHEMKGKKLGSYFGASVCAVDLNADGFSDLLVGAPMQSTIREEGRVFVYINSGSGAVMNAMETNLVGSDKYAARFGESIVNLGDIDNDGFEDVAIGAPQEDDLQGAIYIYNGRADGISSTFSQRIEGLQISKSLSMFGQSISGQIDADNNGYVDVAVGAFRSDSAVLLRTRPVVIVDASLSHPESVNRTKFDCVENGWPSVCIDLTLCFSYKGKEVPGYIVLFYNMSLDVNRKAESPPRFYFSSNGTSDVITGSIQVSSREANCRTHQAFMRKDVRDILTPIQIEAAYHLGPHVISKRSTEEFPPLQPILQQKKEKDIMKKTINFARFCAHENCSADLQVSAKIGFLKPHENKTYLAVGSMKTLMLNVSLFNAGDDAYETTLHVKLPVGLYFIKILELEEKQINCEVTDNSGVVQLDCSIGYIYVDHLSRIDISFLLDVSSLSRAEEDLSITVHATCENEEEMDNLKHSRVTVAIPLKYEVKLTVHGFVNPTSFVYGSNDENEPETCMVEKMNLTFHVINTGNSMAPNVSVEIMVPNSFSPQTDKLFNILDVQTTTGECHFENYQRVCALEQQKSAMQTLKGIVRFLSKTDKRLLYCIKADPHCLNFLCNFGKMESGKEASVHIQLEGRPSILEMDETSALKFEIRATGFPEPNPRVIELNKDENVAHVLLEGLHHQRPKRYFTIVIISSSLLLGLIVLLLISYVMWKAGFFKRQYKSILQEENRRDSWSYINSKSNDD
Sequence of α4β1 (P05556 21-798): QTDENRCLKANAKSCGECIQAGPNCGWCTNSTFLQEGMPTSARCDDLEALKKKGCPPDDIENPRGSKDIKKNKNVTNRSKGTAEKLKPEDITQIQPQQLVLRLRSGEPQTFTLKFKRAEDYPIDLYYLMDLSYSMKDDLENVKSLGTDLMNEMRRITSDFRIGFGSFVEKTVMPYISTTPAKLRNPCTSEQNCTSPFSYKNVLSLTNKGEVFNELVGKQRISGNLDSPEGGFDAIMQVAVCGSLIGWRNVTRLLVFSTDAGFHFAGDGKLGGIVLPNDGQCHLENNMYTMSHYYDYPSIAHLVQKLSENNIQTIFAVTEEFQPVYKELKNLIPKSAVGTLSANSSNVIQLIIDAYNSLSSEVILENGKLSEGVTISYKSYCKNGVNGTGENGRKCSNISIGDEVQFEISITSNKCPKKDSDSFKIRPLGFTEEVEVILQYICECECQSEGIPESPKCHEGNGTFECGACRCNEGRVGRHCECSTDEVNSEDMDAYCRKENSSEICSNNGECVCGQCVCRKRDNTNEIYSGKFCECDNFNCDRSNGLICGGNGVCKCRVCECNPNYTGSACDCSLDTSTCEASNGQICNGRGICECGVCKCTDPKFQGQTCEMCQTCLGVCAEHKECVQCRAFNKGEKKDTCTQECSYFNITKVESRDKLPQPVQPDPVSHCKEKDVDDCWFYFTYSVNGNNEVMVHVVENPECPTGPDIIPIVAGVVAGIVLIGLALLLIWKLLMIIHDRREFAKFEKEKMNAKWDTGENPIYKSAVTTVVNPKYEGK

On to `CC(=O)N[C@@H]1C(=O)N(C)[C@@H](CCCNC(=N)N)C(=O)N[C@@H](CO)C(=O)N[C@@H](CC(=O)O)C(=O)N[C@@H]([C@@H](C)O)C(=O)N[C@@H](CC(C)C)C(=O)N[C@H](C(=O)N[C@@H](Cc2c[nH]c3ccccc23)C(=O)N[C@@H](CCC(=O)O)C(=O)N[C@H](CCCCNC(=O)COCC(=O)NCCCC[C@@H](NC(=O)[C@H](CCC(=O)O)NC(=O)[C@H](Cc2c[nH]c3ccccc23)NC(=O)[C@H]2NC(=O)[C@H](CC(C)C)NC(=O)[C@H]([C@@H](C)O)NC(=O)[C@H](CC(=O)O)NC(=O)[C@H](CO)NC(=O)[C@H](CCCNC(=N)N)N(C)C(=O)[C@@H](NC(C)=O)C(C)(C)SSC2(C)C)C(N)=O)C(N)=O)C(C)(C)SSC1(C)C` [compound 67] (I: Ac-[Pen][NMeR]SDTL[Pen]WE[dK]-NH2 / II: Ac-[Pen][NMeR]SDTL[Pen]WE[dK]-NH2; disulfide I:1-I:7, II:1-II:7; linker I:10-II:10 via Diglycolyl), for which the concentration for half-maximal inhibition (IC50) in data set [1] is > 100 µM; in data set [2], < 0.01 µM. For `CC(=O)N[C@@H]1C(=O)N(C)[C@@H](CCCNC(=N)N)C(=O)N[C@@H](CO)C(=O)N[C@@H](CC(=O)O)C(=O)N[C@@H]([C@@H](C)O)C(=O)N[C@@H](CC(C)C)C(=O)N[C@H](C(=O)N[C@@H](Cc2c[nH]c3ccccc23)C(=O)N[C@H](CCC(=O)O)C(=O)N[C@H](CCCCNC(=O)COCC(=O)NCCCC[C@@H](NC(=O)[C@@H](CCC(=O)O)NC(=O)[C@H](Cc2c[nH]c3ccccc23)NC(=O)[C@H]2NC(=O)[C@H](CC(C)C)NC(=O)[C@H]([C@@H](C)O)NC(=O)[C@H](CC(=O)O)NC(=O)[C@H](CO)NC(=O)[C@H](CCCNC(=N)N)N(C)C(=O)[C@@H](NC(C)=O)C(C)(C)SSC2(C)C)C(N)=O)C(N)=O)C(C)(C)SSC1(C)C` [compound 68] (I: Ac-[Pen][NMeR]SDTL[Pen]W[dE][dK]-NH2 / II: Ac-[Pen][NMeR]SDTL[Pen]W[dE][dK]-NH2; disulfide I:1-I:7, II:1-II:7; linker I:10-II:10 via Diglycolyl), in that order: > 100 µM and < 0.01 µM. For `CC(=O)N[C@@H]1C(=O)N(C)[C@@H](CCCNC(=N)N)C(=O)N[C@@H](CO)C(=O)N[C@@H](CC(=O)O)C(=O)N[C@@H]([C@@H](C)O)C(=O)N[C@@H](CC(C)C)C(=O)N[C@H](C(=O)N[C@@H](Cc2c[nH]c3ccccc23)C(=O)N[C@@H](CCC(=O)O)C(=O)N[C@H](CCCCNC(=O)COCC(=O)NCCCC[C@@H](NC(=O)[C@H](CCC(=O)O)NC(=O)[C@H](Cc2c[nH]c3ccccc23)NC(=O)[C@H]2NC(=O)[C@H](CC(C)C)NC(=O)[C@H]([C@@H](C)O)NC(=O)[C@H](CC(=O)O)NC(=O)[C@H](CO)NC(=O)[C@H](CCCNC(=N)N)N(C)C(=O)[C@@H](NC(C)=O)C(C)(C)SSC2(C)C)C(=O)O)C(=O)O)C(C)(C)SSC1(C)C` [compound 78] (I: Ac-[Pen][NMeR]SDTL[Pen]WE[dK]-OH / II: Ac-[Pen][NMeR]SDTL[Pen]WE[dK]-OH; disulfide I:1-I:7, II:1-II:7; linker I:10-II:10 via Diglycolyl), in that order: > 100 µM and < 0.01 µM. Regarding `CC(=O)N[C@@H]1C(=O)N(C)[C@@H](CCCNC(=N)N)C(=O)N[C@@H](CO)C(=O)N[C@@H](CC(=O)O)C(=O)N[C@@H]([C@@H](C)O)C(=O)N[C@@H](CC(C)C)C(=O)N[C@H](C(=O)N[C@@H](Cc2ccc(C(C)(C)C)cc2)C(=O)N[C@@H](CCC(=O)O)CC(=O)N[C@H](CCCCNC(=O)COCC(=O)NCCCC[C@@H](NC(=O)C[C@H](CCC(=O)O)NC(=O)[C@H](Cc2ccc(C(C)(C)C)cc2)NC(=O)[C@H]2NC(=O)[C@H](CC(C)C)NC(=O)[C@H]([C@@H](C)O)NC(=O)[C@H](CC(=O)O)NC(=O)[C@H](CO)NC(=O)[C@H](CCCNC(=N)N)N(C)C(=O)[C@@H](NC(C)=O)C(C)(C)SSC2(C)C)C(N)=O)C(N)=O)C(C)(C)SSC1(C)C` [compound 132] (I: Ac-[Pen][NMeR]SDTL[Pen][Phe(4-tBu)][β3hE][dK]-NH2 / II: Ac-[Pen][NMeR]SDTL[Pen][Phe(4-tBu)][β3hE][dK]-NH2; disulfide I:1-I:7, II:1-II:7; linker I:10-II:10 via Diglycolyl), the figures for the IC50 in data set [1] and in data set [2] were > 100 µM and < 0.01 µM, respectively.

For `CC(=O)N[C@H]1CSSC[C@@H](C(=O)NCC(=O)N[C@@H](CCC(=O)O)C(=O)N[C@@H](CCCCN)C(=O)O)NC(=O)[C@H](CC(C)C)NC(=O)[C@H]([C@@H](C)O)NC(=O)[C@H](CC(=O)O)NC(=O)[C@H](CO)NC(=O)[C@H](CCCNC(=N)N)N(C)C1=O` [compound 199, Ac-C-N-Me-R-S-D-T-L-C-G-E-K-OH] (Ac-C[NMeR]SDTLCGEK-OH; disulfide 1-7), the half-life at 20 μM in data set [3] was > 6 h.

In the case of `CC(=O)N[C@H]1CSSC[C@@H](C(=O)NCC(=O)N[C@@H](CCC(=O)O)C(=O)N[C@@H](CCCCNC(=O)COCC(=O)NCCCC[C@H](NC(=O)[C@H](CCC(=O)O)NC(=O)CNC(=O)[C@@H]2CSSC[C@H](NC(C)=O)C(=O)N(C)[C@@H](CCCNC(=N)N)C(=O)N[C@@H](CO)C(=O)N[C@@H](CC(=O)O)C(=O)N[C@@H]([C@@H](C)O)C(=O)N[C@@H](CC(C)C)C(=O)N2)C(=O)O)C(=O)O)NC(=O)[C@H](CC(C)C)NC(=O)[C@H]([C@@H](C)O)NC(=O)[C@H](CC(=O)O)NC(=O)[C@H](CO)NC(=O)[C@H](CCCNC(=N)N)N(C)C1=O` [compound 201, (Ac-C-N-Me-R-S-D-T-L-C-G-E-K-OH)2-DIG] (I: Ac-C[NMeR]SDTLCGEK-OH / II: Ac-C[NMeR]SDTLCGEK-OH; disulfide I:1-I:7, II:1-II:7 (inferred); linker I:10-II:10 via Diglycolyl (inferred)), in data set [3], the half-life at 20 μM was > 6 h. Same read-out and setting: the value for `CC(=O)N[C@@H]1C(=O)N[C@@H](CCCNC(=N)N)C(=O)N[C@@H](CO)C(=O)N[C@@H](CC(=O)O)C(=O)N[C@@H]([C@@H](C)O)C(=O)N[C@@H](CC(C)C)C(=O)N[C@H](C(=O)N[C@H](CCCCNC(=O)COCC(=O)NCCCC[C@@H](NC(=O)[C@@H]2CSSC(C)(C)[C@H](NC(C)=O)C(=O)N[C@@H](CCCNC(=N)N)C(=O)N[C@@H](CO)C(=O)N[C@@H](CC(=O)O)C(=O)N[C@@H]([C@@H](C)O)C(=O)N[C@@H](CC(C)C)C(=O)N2)C(N)=O)C(N)=O)CSSC1(C)C` [compound 207, (Ac-Pen-R-S-D-T-L-C-k-NH2)2-DIG] (I: Ac-[Pen]RSDTLC[dK]-NH2 / II: Ac-[Pen]RSDTLC[dK]-NH2; disulfide I:1-I:7, II:1-II:7 (inferred); linker I:8-II:8 via Diglycolyl (inferred)) was > 1 h; that for `CC(=O)N[C@@H]1C(=O)N(C)[C@@H](CCCNC(=N)N)C(=O)N[C@@H](CO)C(=O)N[C@@H](CC(=O)O)C(=O)N[C@@H]([C@@H](C)O)C(=O)N[C@@H](CC(C)C)C(=O)N[C@H](C(=O)N[C@@H](Cc2c[nH]c3ccccc23)C(=O)N[C@H](CCCCN)C(N)=O)C(C)(C)SSC1(C)C` [compound 208, Ac-Pen-N-Me-R-S-D-T-L-Pen-W-k-NH2] (Ac-[Pen][NMeR]SDTL[Pen]W[dK]-NH2; disulfide 1-7) was > 6 h.
